The record followed here is patent publication US20100330685A1, “DIAMINORHODAMINE DERIVATIVE” (SEKISUI MEDICAL CO., LTD., priority 2000, published 2010).

Data set [1] has as its system Bovine aorta endothelial cells. The experiment in a line: Imaging of nitric oxide in cells. Format: cell-based. Here is the method:
Bovine aorta endothelial cells were cultured on an imaging dish. The culture broth was changed to DMEM medium (supplemented with 0.2% DMSO) containing DAR-4M AM (10 μM) prepared in Example 5, and incubated at 37° C. for 30 minutes to load DAR-4M AM on the cells. The cells were washed, and the culture broth was changed again to DMEM medium not containing DAR-4M AM. After incubation at 37° C. for 1 hour, imaging was performed. The cells were examined with a fluorescence microscope equipped with an excitation filter (520 to 550 nm), a dichromic mirror (565 nm), and a barrier filter (580 nm, long pass). The measurement was performed in a warm box kept at 37° C. Imaging interval was set to be 10 seconds, and images captured by a cooled charge-coupled device camera were recorded and analyzed by an image analyzer. The results in the figure are shown with averaged change of relative fluorescence intensity of arbitrary seven cells based on the fluorescence intensity at the time of the start of the measurement. The fluorescence intensity was increased by stimulation with bradykinin (FIG. 3(A)), but the fluorescence intensity was not increased in the presence of a nitric oxide synthetase inhibitor (1 mM L-NAME) (FIG. 3(B)).

Molecules are shown by their SMILES. Counter-ions that a name gives are not always drawn.

Usually melting point stands for the temperature of the solid-liquid transition. As for `CNc1ccc(-c2c3ccc(N(C)C)cc3[o+]c3cc(N(C)C)ccc23)c(C(=O)OCOC(C)=O)c1N.[I-]` [DAR-4M AM, 3,6-bis(dimethylamino)-9-[2-acetoxymethoxycarbonyl-3-amino-4-(N-methylamino)phenyl]xanthylium iodide], the melting point lay in the range of 177 to 178 °C. Also, in data set [1] (10 μM in DMEM medium, 37° C., 30 minutes), the “uptake into the cells” value is on record as “taken into the cells”. In data set [1] (1 mM L-NAME, cells loaded with 10 μM), the “fluorescence intensity in the presence of a nitric oxide synthetase inhibitor” value is “not increased”. The “fluorescence intensity on stimulation with bradykinin” value in data set [1] (cells loaded with 10 μM, 37° C., 30 minutes, average of seven cells) was “increased”.

`CNc1ccc(-c2c3ccc(N(C)C)cc3[o+]c3cc(N(C)C)ccc23)c(C(=O)[O-])c1N` [DAR-4M, 3,6-bis(dimethylamino)-9-[3-amino-4-(N-methylamino)-2-carboxyphenyl]xanthylium intramolecular salt]: the “reaction with nitric oxide in the cells” value in data set [1] (DAR-4M produced in the cells from DAR-4M AM) is “specifically reacted with nitric oxide”.

`CCN(CC)c1ccc2c(-c3ccc(NC)c(N)c3C(=O)OCOC(C)=O)c3ccc(N(CC)CC)cc3[o+]c2c1.[I-]` [DAR-M AM, 3,6-bis(diethylamino)-9-[2-acetoxymethoxycarbonyl-3-amino-4-(N-methylamino)phenyl]xanthylium iodide] registered a melting point of 147 to 150 °C.
